Reference: patent US11332438B2, “Creatine prodrugs, compositions and methods of use thereof” (Ultragenyx Pharmaceutical Inc., priority 2017, dated 2022)
Structures can show the parent of a compound that is named as a salt. Values belong to the compound of their own block, whether it stands above or below them.

Experiments:
[1] = tested on: Phenocell CrT deficient neurons (iPSC-derived human neurons); test: Creatine prodrug uptake and d3-creatine release in Phenocell CrT deficient neurons (Table 4B); type: cell-based; conditions: 2 hours
Protocol: Human neurons were obtained by differentiation of iPSC-derived neural stem cells for 14 days. The iPSCs were obtained from Phenocell Corporation. Neurons were cultured and differentiated to Day 10 and then frozen in liquid nitrogen. Neurons were thawed and replated at 1×10^6 per well of viable cells on poly-ornithine/laminin coated plates in 2 ml medium per well. Differentiation in complete Neurol medium with 2 ng/ml FGF2 was carried out for 4 additional days with a complete medium change (90% of medium) on Day 12. Activin A (20 ng/ml final conc.) was spiked into the cultures on Day 11 and Day 13. […] In parallel, compounds were incubated in medium alone to assess chemical stability of parent prodrug and metabolites. At the end of the 2 hour incubation, supernatants were collected and frozen at −80 C. Neurons in 6 well plates were washed gently 3× with HBSS and frozen at −80° C. Cell lysates were obtained by addition of 130 μl/well 10 mM Tris pH 7.4 with complete Mini protease inhibitors and scraping of wells. Plates were kept on ice during processing. Lysates were homogenized by hand briefly with a green pestle in 1.5 ml centrifuge tubes and then vortexed at high speed for 5 seconds. Lysates were centrifuged at 13,000 g, 10 minutes, 4 C and supernatants (cytosol fraction) were transferred in a new tube. A crash solution constituted of 80% acetonitrile and 20% water with bucetin, d5-Cr (internal standard) was added at 4:1 volume to volume to 50 ul of all samples for a total volume of 250 μL. Then plate was spun at 4000 rpm, 10 minutes, […] Samples were transferred to a new plate and frozen at −80 C prior to analysis by LC-MS/MS (Table 4B).

[2] = Plasma stability, human plasma; type: in vitro ADME; conditions: 37 °C, read-out: Plasma Stability Human t1/2
Protocol: (§1) The stabilities of creatine prodrugs can be evaluated in one or more in vitro systems using a variety of preparations following methods known in the art. Experimental conditions useful for the in vitro studies are described in Table 1. Prodrug is added to each preparation in triplicate. […]
(§2) Protocol for plasma stability for early screen macrocycles (Method A):
(§3) Frozen plasma was thawed by placing at 37° C. quickly and centrifuged at 3,000 rpm for 8 minutes to remove clots. Then the supernatant was pipetted and pooled as the plasma to be used in the experiment. The plasma was placed on ice until used. The test compounds and reference compounds spiking solution was prepared as a 2.5 mM test compounds spiking solution A: Add 20 μL of 10 mM test compounds stock solution to 60 μL DMSO. 0.1 mM Spiking solution B was prepared: Add 40 μL of spiking solution A to 960 μL of […] Sodium phosphate buffer with 0.5% BSA. […] For 0-min, 400 μL of ACN containing IS was added to the wells of 0-min plate and then 90 μL of plasma was added. […] 50 μL of the supernatant was transferred from each well into a 96-well sample plate containing 120 μL of ultra pure water (Millipore, ZMQS50F01) and analyzed by LC/MS.
(§4) Protocol for plasma stability (Method B):
(§5) The frozen plasma was thawed in a 37° C. water bath and then, if needed, adjusted to pH=7.4 then preheated in a 37° C. incubator. The test article was dissolved in 10% DMSO/water and spiked into plasma pre-plated into 96 well plates at a final concentration of 1 μM. Discrete incubations were performed at 37° C. and included 5 time points: t=0, 2, 5, 15, and 30 min. Samples were then crashed with 4× volume, ice cold 20% water/80% acetonitrile and spun at 4000 g for 10 mins. The supernatant was dried down and reconstituted with water and analyzed by LC-MS/MS. The half life in minute was calculated.

[3] = Plasma stability, mouse plasma; type: in vitro ADME; conditions: 37 °C, read-out: Plasma Stability Mouse t1/2
Protocol: as §1, §2, §3, §4, §5

[4] = Chemical stability in phosphate buffered saline (PBS); type: physicochemical; conditions: 50 μM prodrug
Protocol: (§6) Chemical stability of creatine prodrugs in phosphate buffered saline (PBS), simulated intestinal fluid (SIF) without pancreatin, simulated gastric fluid (SGF) without pepsin were determined by LC-UV, LC-CAD, LC-UV-CAD or LC-MS/MS as appropriate. Creatine prodrugs of the present disclosure (50 μM) were incubated at 37° C. according to described protocols and prodrug levels were compared between t=0, t=15, t=60, and t=120 mins by peak area ratio to determine the percentage remained at t=120 mins (2 h).
(§7) Protocol for PBS, SIF and SGF stability for screening:
(§8) Prodrugs (50 μM) were incubated in PBS, FaSSIF (Biorelevant) or FaSSGF (Biorelevant) at 37° C.

[5] = Chemical stability in simulated gastric fluid (SGF) without pepsin; type: physicochemical; conditions: 50 μM prodrug
Protocol: as §6, §7, §8

[6] = Liver microsome stability, human; type: in vitro ADME; conditions: liver microsomes, read-out: Microsome Stability Human t1/2
Protocol: as §1
(§9) Protocol for Microsomal Stability:
(§10) For reference compound, a 500 μM spiking solution was prepared: add 10 μL of 10 mM DMSO stock solution into 190 μL ACN. […] For test compound, a 5 mM spiking solution was prepared: add 10 μL of 10 mM DMSO stock solution into 10 μL ACN. […] NADPH stock solution (6 mM) was prepared by dissolving NADPH into buffer 0.1 M Potassium Phosphate buffer, 1.0 mM EDTA, pH 7.4. […] For 0-min, 135 μL of ACN containing IS was added to the wells of 0-min plate and then 15 μL of NADPH stock solution (6 mM) was added. 15 μL of NADPH stock solution (6 mM) was added to the samples designated as 0-, 5-, 10-, 20-, 30-min, 60-min; 15 μL of buffer 0.1 M Potassium Phosphate buffer, 1.0 mM EDTA, pH 7.4, was added to the samples designated as 60-min without NADPH. At 5-min, 10-min, 20-min, and 30-min, 60-min 135 μL of ACN containing IS was added to the wells of corresponding plates, respectively, to stop the reaction. […] 50 μL of the supernatant from each well was transferred into a 96-well sample plate containing 50 μL of ultra pure water (Millipore, ZMQS50FOI) and analyzed by LC/MS.

[7] = Liver microsome stability, mouse; type: in vitro ADME; conditions: liver microsomes, read-out: Microsome Stability Mouse t1/2
Protocol: as §1, §9, §10

Compound: [2H]C([2H])([2H])N1CC(=O)OC(C)CCCCCCCCCCC(=O)NC1=N (stereo not drawn) [Compound M]
Prodrug concentration in the cell cytosol ([1]; Study No. 2, 100 μM): BLOQ
Prodrug concentration in the cell cytosol ([1]; Study No. 2, 500 μM): BLOQ

Compound: [2H]C([2H])([2H])N1CC(=O)OC(CC)CCCCCCCC(=O)NC1=N (stereo not drawn) [Compound V, 15-ethyl-5-imino-4-(methyl-d3)-1-oxa-4,6-diazacyclopentadecane-2,7-dione]
Prodrug concentration in the cell cytosol ([1]; Study No. 3, 50 μM): BLOQ
d3-Creatine concentration in the cell cytosol ([1]; Study No. 3, 50 μM): BLOQ

Compound: [2H]C([2H])([2H])N1CC(=O)OC(C)(C)CCCCCCCC(=O)NC1=N [Compound X, 5-imino-15,15-dimethyl-4-(methyl-d3)-1-oxa-4,6-diazacyclopentadecane-2,7-dione]
Prodrug concentration in the cell cytosol ([1]; Study No. 3, 50 μM): BLOQ
d3-Creatine concentration in the cell cytosol ([1]; Study No. 3, 50 μM): BLOQ

Compound: [2H]C([2H])([2H])N1CC(=O)O[C@H](C)CCCCCCCCCC(=O)NC1=N [Compound Q, (R)-5-imino-4,17-dimethyl-1-oxa-4,6-diazacycloheptadecane-2,7-dione Hydrochloride]
half-life ([2]; Table 2C, macrocycles): 10 min
half-life ([3]; Table 2C, macrocycles): 1.3 min
Prodrug concentration in the cell cytosol ([1]; Study No. 2, 100 μM): BLOQ
Prodrug concentration in the cell cytosol ([1]; Study No. 2, 500 μM): BLOQ

Compound: [2H]C([2H])([2H])N(CC(=O)O)C(=N)NC(=O)CCCCCCCCCCO [Compound 54]
half-life ([2]; Table 2B): > 180 min
half-life ([3]; Table 2B): > 180 min
half-life at 10 μM ([6]; pH 7.4, Table 2B): > 90 min
half-life at 10 μM ([7]; pH 7.4, Table 2B): > 90 min
Chemical Stability PBS % T0 at 2 hours at 37 °C. ([4]; Table 2B): 103%
Chemical Stability SGF, no enzyme % T0 at 2 hours at 37 °C. ([5]; Table 2B): 102%
Prodrug concentration in the cell cytosol ([1]; Study No. 1, 10 μM): BLOQ
d3-Creatine concentration in the cell cytosol ([1]; Study No. 1, 10 μM): BLOQ
d3-Creatinine concentration in the cell cytosol ([1]; Study No. 1, 10 μM): BLOQ
Prodrug concentration in the cell cytosol ([1]; Study No. 1, 50 μM): BLOQ
d3-Creatine concentration in the cell cytosol ([1]; Study No. 1, 50 μM): BLOQ
d3-Creatinine concentration in the cell cytosol ([1]; Study No. 1, 50 μM): BLOQ

Compound: [2H]C([2H])([2H])N1CC(=O)OCCCCCCC(=O)NC1=N [Compound EE, 5-imino-4-trideuteriomethyl-1-oxa-4,6-diazacyclotridecane-2,7-dione]
Prodrug concentration in the cell cytosol ([1]; Study No. 3, 50 μM): BLOQ
d3-Creatine concentration in the cell cytosol ([1]; Study No. 3, 50 μM): BLOQ

Compound: [2H]C([2H])([2H])N1CC(=O)OC(C)(C)CCCCCCCCCC(=O)NC1=N [Compound U, 5-imino-4-trideuteriomethyl-17,17-dimethyl-1-oxa-4,6-diazacycloheptadecane-2,7-dione]
half-life ([2]; Table 2C, macrocycles): 72 min
half-life ([3]; Table 2C, macrocycles): 70 min
Prodrug concentration in the cell cytosol ([1]; Study No. 3, 50 μM): 0.48 nmoles/mg protein
d3-Creatine concentration in the cell cytosol ([1]; Study No. 3, 50 μM): BLOQ

Now from value to compound:

Chemical Stability PBS % T0 at 2 hours at 37 °C. ([4]; Table 2B): 98%
Chemical Stability SGF, no enzyme % T0 at 2 hours at 37 °C. ([5]; Table 2B): 98%
Prodrug concentration in the cell cytosol ([1]; Study No. 1, 10 μM): 3.47 nmoles/mg protein
d3-Creatine concentration in the cell cytosol ([1]; Study No. 1, 10 μM): 0.65 nmoles/mg protein
d3-Creatinine concentration in the cell cytosol ([1]; Study No. 1, 10 μM): 0.84 nmoles/mg protein
Prodrug concentration in the cell cytosol ([1]; Study No. 1, 50 μM): 12 nmoles/mg protein
d3-Creatine concentration in the cell cytosol ([1]; Study No. 1, 50 μM): 2.9 nmoles/mg protein
d3-Creatinine concentration in the cell cytosol ([1]; Study No. 1, 50 μM): 29.6 nmoles/mg protein
Prodrug concentration in the cell cytosol ([1]; Study No. 2, 50 μM): 9.5 nmoles/mg protein
d3-Creatine concentration in the cell cytosol ([1]; Study No. 2, 50 μM): 0.8 nmoles/mg protein
d3-Creatinine concentration in the cell cytosol ([1]; Study No. 2, 50 μM): 10.6 nmoles/mg protein
Prodrug concentration in the cell cytosol ([1]; Study No. 3, 50 μM): 0.51 nmoles/mg protein
d3-Creatine concentration in the cell cytosol ([1]; Study No. 3, 50 μM): 2.84 nmoles/mg protein
d3-Creatinine concentration in the cell cytosol ([1]; Study No. 3, 50 μM): 8.82 nmoles/mg protein
Compound: Cl.[2H]C([2H])([2H])N(CC(=O)OC(C)C(C)(C)C)C(=N)NC(=O)CCCCCCCCCC (stereo not drawn) [Compound 52]

Prodrug concentration in the cell cytosol ([1]; Study No. 3, 50 μM): BLOQ
d3-Creatine concentration in the cell cytosol ([1]; Study No. 3, 50 μM): BLOQ
Compound: [2H]C([2H])([2H])N1CC(=O)OC(C)CCCCCCCC(=O)NC1=N (stereo not drawn) [Compound S, 5-imino-4-trideuteriomethyl-15-methyl-1-oxa-4,6-diazacyclopentadecane-2,7-dione]

Prodrug concentration in the cell cytosol ([1]; Study No. 3, 50 μM): 0.088 nmoles/mg protein
d3-Creatine concentration in the cell cytosol ([1]; Study No. 3, 50 μM): BLOQ
Compound: [2H]C([2H])([2H])N1CC(=O)OC(C)(C)CCCCCCCCC(=O)NC1=N [Compound HH, 5-imino-4-trideuteriomethyl-16,16-Dimethyl-1-oxa-4,6-diazacyclohexadecane-2,7-dione]

Prodrug concentration in the cell cytosol ([1]; Study No. 3, 50 μM): 0.44 nmoles/mg protein
d3-Creatine concentration in the cell cytosol ([1]; Study No. 3, 50 μM): BLOQ
Compound: [2H]C([2H])([2H])N1CC(=O)OC(CCC)CCCCCCCC(=O)NC1=N (stereo not drawn) [Compound W, 5-imino-4-trideuteriomethyl-15-propyl-1-oxa-4,6-diazacyclopentadecane-2,7-dione]

half-life ([2]; Table 2A): > 180 min
half-life ([3]; Table 2A): 47 min
half-life at 10 μM ([6]; pH 7.4, Table 2A): 24 min
half-life at 10 μM ([7]; pH 7.4, Table 2A): < 5 min
Chemical Stability PBS % T0 at 2 hours at 37 °C. ([4]; Table 2A): 87%
Chemical Stability SGF, no enzyme % T0 at 2 hours at 37 °C. ([5]; Table 2A): 62%
Compound: [2H]C([2H])([2H])N1CC(=O)N=C1NC(=O)CCCCCCCCCC [Compound 49]
